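Following 48 hours of exposure in 96-well plates, responses at five concentrations were used to interpolate endpoints linearly. GI50 is the concentration that inhibits growth by half.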 The source made the active and inactive calls. Cut-off read from the data, not from the text of the source: active = GI50 up to about 1.1 µM and inactive = higher.
Key:
Experiment in all cases: NCI tumour cell line growth inhibition, 48 h
[1] = tested on: LXFL 529
[2] = tested on: OVCAR-3
[3] = tested on: HCT-15
[4] = tested on: SF-295
[5] = tested on: OVCAR-8
[6] = tested on: NCI-H522
[7] = tested on: OVCAR-5
[8] = tested on: SNB-19
[9] = tested on: NCI-H226
[10] = tested on: NCI-H460
[11] = tested on: COLO 205
[12] = tested on: OVCAR-4
[13] = tested on: KM12
[14] = tested on: HOP-92
[15] = tested on: RXF 631
[16] = tested on: A549
[17] = tested on: CAKI-1
[18] = tested on: CCRF-CEM
[19] = tested on: SNB-78
[20] = tested on: UACC-62
[21] = tested on: TK-10
[22] = tested on: U-251
[23] = tested on: Malme-3M
[24] = tested on: 786-0
[25] = tested on: UACC-257
[26] = tested on: IGROV-1
[27] = tested on: ACHN
[28] = tested on: MOLT-4
[29] = tested on: HOP-18
[30] = tested on: RXF 393
[31] = tested on: KM-20L2
[32] = tested on: UO-31
[33] = tested on: HL-60
[34] = tested on: SNB-75
[35] = tested on: HCT-116
[36] = tested on: DMS-273
[37] = tested on: DLD-1
[38] = tested on: SK-OV-3
[39] = tested on: SK-MEL-28
[40] = tested on: HOP-62
[41] = tested on: LOX IMVI
[42] = tested on: SW-620
[43] = tested on: M14
[44] = tested on: RPMI-8226
[45] = tested on: SK-MEL-5
[46] = tested on: SK-MEL-2
[47] = tested on: M19-MEL
[48] = tested on: DMS-114
[49] = tested on: SN12C
[50] = tested on: SF-268
[51] = tested on: EKVX
[52] = tested on: HT-29
[53] = tested on: K562
[54] = tested on: NCI-H23
[55] = tested on: A498
[56] = tested on: HCC 2998
[57] = tested on: SF-539
[58] = tested on: SR
[59] = tested on: XF498

In the case of `C1=NN(Cc2ccccc2)C(N(Cc2ccccc2)Cc2ccccc2)N1` (centres undefined), the GI50 [1] is reported as 12.1 µM (inactive), the GI50 [2] is reported as 14 µM (inactive) and the GI50 [3] is reported as 16.1 µM. The GI50 [4] was 14.5 µM (inactive), the GI50 [5] was 23.9 µM (inactive) and the GI50 [6] was 15.7 µM (inactive). For the same molecule, the GI50 [7] was 13 µM (inactive), the GI50 [8] was 20.9 µM (inactive) and the GI50 [9] was 18.5 µM (inactive). The GI50 [10] was 18.1 µM (inactive), the GI50 [11] was 16.9 µM (inactive) and the GI50 [12] was 15.8 µM (inactive). For the same molecule, the GI50 [13] was 16.3 µM (inactive), the GI50 [14] was 12.8 µM (inactive) and the GI50 [15] was 16.1 µM (inactive). For the same molecule, the GI50 [16] was 16.3 µM (inactive), the GI50 [17] was 14.4 µM (inactive) and the GI50 [18] was 12.2 µM (inactive). For the same molecule, the GI50 [19] was 29.6 µM (inactive), the GI50 [20] was 14 µM (inactive) and the GI50 [21] was 29.3 µM (inactive). The GI50 [22] was 16.7 µM (inactive), the GI50 [23] was 12.2 µM (inactive) and the GI50 [24] was 17.8 µM (inactive). For the same molecule, the GI50 [25] was 16.7 µM (inactive), the GI50 [26] was 14.5 µM (inactive) and the GI50 [27] was 19.7 µM (inactive). For the same molecule, the GI50 [28] was 15.2 µM (inactive), the GI50 [29] was 23.3 µM (inactive) and the GI50 [30] was 16.2 µM (inactive). For the same molecule, the GI50 [31] was 14.1 µM (inactive), the GI50 [32] was 14.2 µM (inactive) and the GI50 [33] was 4.91 µM (inactive). The GI50 [34] was 23.1 µM (inactive), the GI50 [35] was 9.31 µM (inactive) and the GI50 [36] was 15.1 µM (inactive). For the same molecule, the GI50 [37] was 21.1 µM (inactive), the GI50 [38] was 15.4 µM (inactive) and the GI50 [39] was 19 µM (inactive). The GI50 [40] was 18.2 µM (inactive), the GI50 [41] was 15.3 µM (inactive) and the GI50 [42] was 20.6 µM (inactive). For the same molecule, the GI50 [43] was 11 µM (inactive), the GI50 [44] was 3.9 µM (inactive) and the GI50 [45] was 14.2 µM (inactive). For the same molecule, the GI50 [46] was 16.4 µM (inactive), the GI50 [47] was 17.5 µM (inactive) and the GI50 [48] was 12.7 µM (inactive). The GI50 [49] was 17 µM (inactive), the GI50 [50] was 21.3 µM (inactive) and the GI50 [51] was 20.3 µM (inactive). The GI50 [52] was 15.2 µM (inactive), the GI50 [53] was 8.91 µM (inactive) and the GI50 [54] was 16.9 µM (inactive). The GI50 [55] was 17.7 µM (inactive), the GI50 [56] was 17.5 µM (inactive) and the GI50 [57] was 15.4 µM (inactive).

With `O=C(NC1CCCCC1)NS(=O)(=O)c1ccc2c(c1)CCC2` [GLYHEXAMIDE] the GI50 [2] was > 100 µM (inactive), the GI50 [3] was > 100 µM and the GI50 [4] was > 100 µM (inactive). The GI50 [5] was > 100 µM (inactive), the GI50 [6] was > 100 µM (inactive) and the GI50 [7] was > 100 µM (inactive). The GI50 [8] was > 100 µM (inactive), the GI50 [9] was > 100 µM (inactive) and the GI50 [11] was > 100 µM (inactive). The GI50 [13] was > 100 µM (inactive), the GI50 [14] was > 100 µM (inactive) and the GI50 [15] was > 100 µM (inactive). For the same molecule, the GI50 [16] was > 100 µM (inactive), the GI50 [58] was > 100 µM (inactive) and the GI50 [59] was > 100 µM (inactive). The GI50 [18] was > 100 µM (inactive), the GI50 [20] was > 100 µM (inactive) and the GI50 [21] was > 100 µM (inactive). The GI50 [22] was > 100 µM (inactive), the GI50 [23] was > 100 µM (inactive) and the GI50 [24] was > 100 µM (inactive). The GI50 [25] was > 100 µM (inactive), the GI50 [26] was > 100 µM (inactive) and the GI50 [27] was > 100 µM (inactive). The GI50 [28] was > 100 µM (inactive), the GI50 [29] was > 100 µM (inactive) and the GI50 [30] was > 100 µM (inactive). The GI50 [32] was > 100 µM (inactive), the GI50 [33] was > 100 µM (inactive) and the GI50 [34] was > 100 µM (inactive). The GI50 [37] was > 100 µM (inactive), the GI50 [38] was > 100 µM (inactive) and the GI50 [39] was > 100 µM (inactive). For the same molecule, the GI50 [41] was > 100 µM (inactive), the GI50 [42] was > 100 µM (inactive) and the GI50 [43] was > 100 µM (inactive). For the same molecule, the GI50 [44] was > 100 µM (inactive), the GI50 [46] was > 100 µM (inactive) and the GI50 [47] was > 100 µM (inactive). For the same molecule, the GI50 [48] was > 100 µM (inactive), the GI50 [49] was > 100 µM (inactive) and the GI50 [50] was > 100 µM (inactive). The GI50 [51] was > 100 µM (inactive), the GI50 [53] was > 100 µM (inactive) and the GI50 [54] was > 100 µM (inactive). The GI50 [56] was > 100 µM (inactive) and the GI50 [57] was > 100 µM (inactive).

Reference: ChEMBL document CHEMBL1201862, “PubChem BioAssay data set” (2004)
